The values below come from article PMC7377239, “Cardiovascular Effects of Polychlorinated Biphenyls and Their Major Metabolites” (Environmental Health Perspectives, 2020).

Like-named read-outs stand apart in the source and are kept apart here.

For test [1], the system named is iCell cardiomyocytes (human iPSC-derived cardiomyocytes). Put plainly: High-content imaging of cytotoxicity and mitochondrial integrity in iPSC-CMs. The class given is cell-based. The following applies: Homo sapiens, Cardiomyocyte, cardiomyocytes (cm). An outline of the steps: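 This assay measured cytotoxicity and mitochondrial integrity in iPSC cardiomyocytes held in 40μL maintenance medium. After compound exposure, a 2× staining solution with Hoechst 33342 (4μg/mL) and MitoTracker™ Orange (0.4μM) was applied for 15 min at 37°C. Cells were washed, fixed with 3.7% formaldehyde, imaged on DAPI and Cy3 channels, and scored in MetaXpress®.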

Another test concerns HUVECs. Nature of the test: High-content imaging cytotoxicity in HUVECs, 24 h. The following applies: Homo sapiens, HUVEC, 24 h, HUVEC, 24 hr. The class given is cell-based, human. An outline of the steps: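 Read-out: multiwavelength high-content imaging of Hoechst 33342, MitoTracker Orange and calcein AM after 24 h compound exposure of confluent HUVEC monolayers. POD values were set using a one-SD cutoff from vehicle (0.5% DMSO) means; with no concentration–response, 100μM was assigned as no observable adverse effect level.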

On to `Oc1cc(Cl)cc(-c2cccc(Cl)c2)c1` [5-OH-PCB 11], for which the minimal effective concentration in test [1] (1.5 h, cam, 90 min, read-out: POD cm.cam.90min) worked out at 16.2 µM; in test [1] (1.5 h, mii, 90 min, read-out: POD cm.mii.90min), 34.1 µM; in test [1] (1.5 h, mito, 90 min, read-out: POD cm.mito.90min), 13.8 µM; in test [1] (1.5 h, tc, 90 min, read-out: POD cm.tc.90min), 14 µM; in test [1] (24 h, cam, 24 hrs, read-out: POD cm.cam.24hrs), 13.8 µM; in test [1] (24 h, mii, 24 hrs, read-out: POD cm.mii.24hrs), 8.43 µM. For the same compound, the minimal effective concentration turned out to be 14.6 µM in test [1] (24 h, mito, 24 hrs, read-out: POD cm.mito.24hrs); 10.7 µM in test [1] (24 h, tc, 24 hrs, read-out: POD cm.tc.24hrs); 0.95 µM in the test on HUVECs (cyto, read-out: POD huvec.cyto.24hr); 0.84 µM in the test on HUVECs (mito, read-out: POD huvec.mito.24hr); 3.3 µM in the test with HUVECs (mitoint, read-out: POD huvec.mitoint.24hr); 1.22 µM in the test on HUVECs (nma, read-out: POD huvec.nma.24hr). For the same compound, the minimal effective concentration in the test with HUVECs (tc, read-out: POD huvec.tc.24hr) amounted to 0.95 µM.
